The source of these data is patent US20240360146A1, “BRUTON'S TYROSINE KINASE AND MUTANT DEGRADER, COMPOSITION AND APPLICATION THEREOF” (HANGZHOU HEALZEN THERAPEUTICS CO., LTD., priority 2021, published 2024).

Where only a bound is given, the exact number is not on record here.

T1 sequence (Q06187 whole entry): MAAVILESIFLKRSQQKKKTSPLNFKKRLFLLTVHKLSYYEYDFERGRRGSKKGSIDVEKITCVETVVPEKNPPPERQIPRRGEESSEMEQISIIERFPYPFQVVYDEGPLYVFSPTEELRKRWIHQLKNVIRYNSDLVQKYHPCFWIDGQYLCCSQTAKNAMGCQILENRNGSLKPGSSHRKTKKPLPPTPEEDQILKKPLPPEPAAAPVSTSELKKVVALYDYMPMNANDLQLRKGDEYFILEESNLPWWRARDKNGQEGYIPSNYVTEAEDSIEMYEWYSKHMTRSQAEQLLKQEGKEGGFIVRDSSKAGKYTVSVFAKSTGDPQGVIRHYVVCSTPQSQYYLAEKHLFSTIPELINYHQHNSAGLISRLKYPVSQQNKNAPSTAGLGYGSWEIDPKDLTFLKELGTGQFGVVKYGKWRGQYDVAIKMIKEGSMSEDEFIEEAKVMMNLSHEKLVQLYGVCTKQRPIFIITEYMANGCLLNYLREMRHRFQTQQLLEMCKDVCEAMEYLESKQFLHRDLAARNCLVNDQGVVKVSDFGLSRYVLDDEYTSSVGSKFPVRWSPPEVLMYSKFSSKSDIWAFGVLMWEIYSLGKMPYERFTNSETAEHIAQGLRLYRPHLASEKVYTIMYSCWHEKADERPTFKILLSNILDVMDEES

This experiment addresses T1, BTK (Homo sapiens, UniProt Q06187).
T1 construct: endogenous in cells; host or cells: Mino cells
As to the kind of experiment: BTK degradation activity test in Mino cells. It is filed as cell-based. Particulars: 16 h incubation, Western blot or Elisa. Here is the method: Mino cell line cells were seeded at 500,000 to 1,000,000 cells/well in a 6-well plate. The compounds were diluted to different concentrations and added to the plate, and after 16 h of incubation, cells were harvested. After lysing the cells, the total protein concentration in each well was determined using the BCA method. The amount of BTK was determined using Western blot or Elisa method. The amount of undegraded BTK protein at each drug concentration was compared with the amount of BTK protein in the blank control group to calculate the degradation rate. The degradation curve was drawn based on the degradation rate at each concentration, and the half degradation concentration (DC50) was calculated by fitting.
As usually defined, the DC50 is the concentration at which degradation of the target reaches its halfway point. Lower therefore signals a more potent degrader. In turn, `NC(=O)c1ncc(N2CCCC(N3CCN(C4CCCC4)C3=O)C2)nc1Nc1ccc2c(c1)CCN(CC1CCN(c3ccc4c(c3)C(=O)N(C3CCC(=O)NC3=O)C4=O)CC1)C2` (stereo not drawn) [Compound 030, 5-(3-(3-cyclopentyl-2-oxoimidazolin-1-yl)piperidin-1-yl)-3-((2-((1-(2-(2,6-dioxopiperidin-3-yl)-1,3-dioxoisoindol-5-yl)piperidin-4-yl)methyl)-1,2,3,4-tetrahydroisoquinolin-6-yl)amino)pyrazin-2-carboxamide] had a DC50 below 1 nM.

On to `NC(=O)c1ncc(N2CCCC(N3CCN(C4COC4)C3=O)C2)nc1Nc1ccc2c(c1)CCN(CC1CCN(c3ccc4c(c3)C(=O)N(C3CCC(=O)NC3=O)C4=O)CC1)C2` (stereo not drawn) [Compound 031, 3-((2-((1-(2-(2,6-dioxopiperidin-3-yl)-1,3-dioxoisoindol-5-yl)piperidin-4-yl)methyl)-1,2,3,4-tetrahydroisoquinolin-6-yl)amino)-5-(3-(3-(oxetan-3-yl)-2-oxoimidazolin-1-yl)piperidin-1-yl)pyrazin-2-carboxamide], for which the 50% degradation concentration (DC50) was below 1 nM.

Consider `NC(=O)c1ncc(N2CCCC(N3CCN(C4COC4)C3=O)C2)nc1Nc1ccc2c(c1)CCN(CC1CN(c3ccc4c(c3)C(=O)N(C3CCC(=O)NC3=O)C4=O)C1)C2` (stereo not drawn) [Compound 032, 3-((2-((1-(2-(2,6-dioxopiperidin-3-yl)-1,3-dioxoisoindol-5-yl)azetidine-3-yl)methyl)-1,2,3,4-tetrahydroisoquinolin-6-yl)amino)-5-(3-(3-(oxetan-3-yl)-2-oxyimidazolin-1-yl)piperidin-1-yl)pyrazin-2-carboxamide], for which the DC50 is below 1 nM.

For `NC(=O)c1ncc(N2CCCC(N3CCN(C4CCCC4)C3=O)C2)nc1Nc1ccc2c(c1)CCN(CC1CN(c3ccc4c(c3)C(=O)N(C3CCC(=O)NC3=O)C4=O)C1)C2` (stereo not drawn) [Compound 033, 5-(3-(3-cyclopentyl-2-oxoimidazolin-1-yl)piperidin-1-yl)-3-((2-((1-(2-(2,6-dioxopiperidin-3-yl)-1,3-dioxoisoindol-5-yl)azetidin-3-yl)methyl)-1,2,3,4-tetrahydroisoquinolin-6-yl)amino)pyrazin-2-carboxamide], the DC50 was below 1 nM.

`CC1(c2ccc(Nc3nc(N4CCCC(N5CCN(C6CCCC6)C5=O)C4)cnc3C(N)=O)cc2)CCN(CC2CCN(c3ccc4c(c3)C(=O)N(C3CCC(=O)NC3=O)C4=O)C2)CC1` (stereo not drawn) [Compound 034, 5-(3-(3-cyclopentyl-2-oxoimidazolin-1-yl)piperidin-1-yl)-3-((4-(1-((1-(2-(2,6-dioxopiperidin-3-yl)-1,3-dioxoisoindolin-5-yl)pyrrolidin-3-yl)methyl)-4-methylpiperidin-4-yl)phenyl)amino)pyrazin-2-carboxamide] yielded a DC50 below 1 nM.

As for `CN1CCN(C2CCCN(c3nnc(C(N)=O)c(Nc4ccc(C5(C)CCN(CC6CCN(c7ccc8c(c7)C(=O)N(C7CCC(=O)NC7=O)C8=O)C6)CC5)cc4)n3)C2)C1=O` (stereo not drawn) [Compound 035, 5-((4-(1-((1-(2-(2,6-dioxopiperidin-3-yl)-1,3-dioxoisoindolin-5-yl)pyrrolidin-3-yl)methyl)-4-methylpiperidin-4-yl)phenyl)amino)-3-(3-(3-methyl-2-oxoimidazolin-1-yl)piperidin-1-yl)-1,2,4-triazin-6-carboxamide], the DC50 was below 1 nM.

`CN1CCN(C2CCCN(c3ncc(C(N)=O)c(Nc4ccc(C5(C)CCN(CC6CCN(c7ccc8c(c7)C(=O)N(C7CCC(=O)NC7=O)C8=O)C6)CC5)cc4)n3)C2)C1=O` (stereo not drawn) [Compound 036, 4-((4-(1-((1-(2-(2,6-dioxopiperidin-3-yl)-1,3-dioxoisoindolin-5-yl)pyrrolidin-3-yl)methyl)-4-methylpiperidin-4-yl)phenyl)amino)-2-(3-(3-methyl-2-oxoimidazolin-1-yl)piperidin-1-yl)pyrimidin-5-carboxamide] gave a DC50 below 1 nM.

As for `CN1CCN(C2CCCN(c3nc(Nc4ccc(C5(C)CCN(CC6CCN(c7ccc8c(c7)C(=O)N(C7CCC(=O)NC7=O)C8=O)C6)CC5)cc4)c(C(N)=O)cc3F)C2)C1=O` (stereo not drawn) [Compound 037, 2-((4-(1-((1-(2-(2,6-dioxopiperidin-3-yl)-1,3-dioxoisoindolin-5-yl)pyrrolidin-3-yl)methyl)-4-methylpiperidin-4-yl)phenyl)amino)-5-fluoro-6-(3-(3-methyl-2-oxoimidazolin-1-yl)piperidin-1-yl)nicotinamide], the DC50 is above 1 nM.

Compound `COc1cc(C(N)=O)c(Nc2ccc(C3(C)CCN(CC4CCN(c5ccc6c(c5)C(=O)N(C5CCC(=O)NC5=O)C6=O)C4)CC3)cc2)nc1N1CCCC(N2CCN(C)C2=O)C1` (stereo not drawn) [Compound 038, 2-((4-(1-((1-(2-(2,6-dioxopiperidin-3-yl)-1,3-dioxoisoindolin-5-yl)pyrrolidin-3-yl)methyl)-4-methylpiperidin-4-yl)phenyl)amino)-5-methoxy-6-(3-(3-methyl-2-oxoimidazolin-1-yl)piperidin-1-yl)nicotinamide] registered a DC50 below 1 nM.

Compound `NC(=O)c1ncc(N2CCCC(N3CCN(C4CCCC4)C3=O)C2)nc1Nc1ccc(C2CCN(CC3CCN(c4ccc5c(c4)C(=O)N(C4CCC(=O)NC4=O)C5=O)C3)CC2)cc1` (stereo not drawn) [Compound 039, 5-(3-(3-cyclopentyl-2-oxoimidazolin-1-yl)piperidin-1-yl)-3-((4-(1-((1-(2-(2,6-dioxopiperidin-3-yl)-1,3-dioxoisoindolin-5-yl)pyrrolidin-3-yl)methyl)piperidin-4-yl)phenyl)amino)pyrazin-2-carboxamide] showed a DC50 below 1 nM.

As to `NC(=O)c1ncc(N2CCCC(N3CCN(C4CCCC4)C3=O)C2)nc1Nc1ccc(C2(F)CCN(CC3CCN(c4ccc5c(c4)C(=O)N(C4CCC(=O)NC4=O)C5=O)C3)CC2)cc1` (stereo not drawn) [Compound 040, 5-(3-(3-cyclopentyl-2-oxoimidazolin-1-yl)piperidin-1-yl)-3-((4-(1-((1-(2-(2,6-dioxopiperidin-3-yl)-1,3-dioxoisoindolin-5-yl)pyrrolidin-3-yl)methyl)-4-fluoropiperidin-4-yl)phenyl)amino)pyrazin-2-carboxamide], the DC50 was below 1 nM.

In the case of `NC(=O)c1ncc(N2CCCC(N3CCN(C4CCCC4)C3=O)C2)nc1Nc1ccc(C2CCN(CC3CCN(c4ccc5c(c4)C(=O)N(C4CCC(=O)NC4=O)C5=O)C3)CC2)cc1F` (stereo not drawn) [Compound 041, 5-(3-(3-cyclopentyl-2-oxoimidazolin-1-yl)piperidin-1-yl)-3-((4-(1-((1-(2-(2,6-dioxopiperidin-3-yl)-1,3-dioxoisoindolin-5-yl)pyrrolidin-3-yl)methyl)piperidin-4-yl)-2-fluorophenyl)amino)pyrazin-2-carboxamide], the DC50 is below 1 nM.

Consider `N#Cc1cc(Nc2nc(N3CCCC(N4CCN(C5CCCC5)C4=O)C3)cnc2C(N)=O)ccc1C1CCN(CC2CCN(c3ccc4c(c3)C(=O)N(C3CCC(=O)NC3=O)C4=O)C2)CC1` (stereo not drawn) [Compound 042, 3-((3-cyano-4-(1-((1-(2-(2,6-dioxopiperidin-3-yl)-1,3-dioxoisoindolin-5-yl)pyrrolidin-3-yl)methyl)piperidin-4-yl)phenyl)amino)-5-(3-(3-cyclopentyl-2-oxoimidazolin-1-yl)piperidin-1-yl)pyrazin-2-carboxamide], for which the DC50 was below 1 nM.

Compound `NC(=O)c1ncc(N2CCCC(N3CCN(C4CCCC4)C3=O)C2)nc1Nc1ccc(C2CCN(CC3CCN(c4ccc5c(c4)C(=O)N(C4CCC(=O)NC4=O)C5=O)C3)CC2F)cc1` (stereo not drawn) [Compound 043, 5-(3-(3-cyclopentyl-2-oxoimidazolin-1-yl)piperidin-1-yl)-3-((4-(1-((1-(2-(2,6-dioxopiperidin-3-yl)-1,3-dioxoisoindolin-5-yl)pyrrolidin-3-yl)methyl)-3-fluoropiperidin-4-yl)phenyl)amino)pyrazin-2-carboxamide] came in with a DC50 above 1 nM.

Take `CN1C(=O)N(C2CCCN(c3cnc(C(N)=O)c(Nc4ccc(C5CCN(CC6CCN(c7ccc8c(c7)C(=O)N(C7CCC(=O)NC7=O)C8=O)C6)CC5)cc4)n3)C2)CC12CC2` (stereo not drawn) [Compound 044, 3-((4-(1-((1-(2-(2,6-dioxopiperidin-3-yl)-1,3-dioxoisoindolin-5-yl)pyrrolidin-3-yl)methyl)piperidin-4-yl)phenyl)amino)-5-(3-(4-methyl-5-oxo-4,6-diazaspiro[2.4]cycloheptan-6-yl)piperidin-1-yl)pyrazin-2-carboxamide]: the DC50 is below 1 nM.

Turning to `NC(=O)c1ncc(N2CCCC(N3CC4CCCCN4C3=O)C2)nc1Nc1ccc(C2CCN(CC3CCN(c4ccc5c(c4)C(=O)N(C4CCC(=O)NC4=O)C5=O)C3)CC2)cc1` (stereo not drawn) [Compound 045, 3-((4-(1-((1-(2-(2,6-dioxopiperidin-3-yl)-1,3-dioxoisoindolin-5-yl)pyrrolidin-3-yl)methyl)piperidin-4-yl)phenyl)amino)-5-(3-(3-oxohexahydroimidazo[1,5-a]pyridin-2(3H)-yl)piperidin-1-yl)pyrazin-2-carboxamide], the DC50 was below 1 nM.

Compound `CN1CCN(C2CC3CC2N(c2cnc(C(N)=O)c(Nc4ccc(C5CCN(C6CN(c7ccc8c(c7)C(=O)N(C7CCC(=O)NC7=O)C8=O)C6)CC5)cc4)n2)C3)C1=O` (stereo not drawn) [Compound 046, 3-((4-(1-(1-(2-(2,6-dioxopiperidin-3-yl)-1,3-dioxoisoindolin-5-yl)azetidin-3-yl)piperidin-4-yl)phenyl)amino)-5-(-6-(3-methyl-2-oxoimidazolin-1-yl)-2-azabicyclo[2.2.1]heptan-2-yl)pyrazin-2-carboxamide] yielded a DC50 below 1 nM.

The compound `CC(C)N1CCN(C2CC3CC2N(c2cnc(C(N)=O)c(Nc4ccc(C5CCN(C6CN(c7ccc8c(c7)C(=O)N(C7CCC(=O)NC7=O)C8=O)C6)CC5)cc4)n2)C3)C1=O` (stereo not drawn) [Compound 047, 3-((4-(1-(1-(2-(2,6-dioxopiperidin-3-yl)-1,3-dioxoisoindolin-5-yl)azetidin-3-yl)piperidin-4-yl)phenyl)amino)-5-(-6-(3-isopropyl-2-oxoimidazolin-1-yl)-2-azabicyclo[2.2.1]heptan-2-yl)pyrazin-2-carboxamide] had a DC50 below 1 nM.
